Measurements taken from PubChem BioAssay (NCI).
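Here, GI50 denotes the concentration required for 50% inhibition of growth. TGI: total growth inhibition.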

How the values were obtained:
Experiment in all cases: NCI tumour cell line growth inhibition, 384-well format
SF-539 CNS = tested on: SF-539 CNS
OVCAR-3 ovarian = tested on: OVCAR-3 ovarian
HCT-15 colon = tested on: HCT-15 colon
UACC-257 melanoma = tested on: UACC-257 melanoma
SNB-19 CNS = tested on: SNB-19 CNS
SNB-75 CNS = tested on: SNB-75 CNS
IGROV1 ovarian = tested on: IGROV1 ovarian
HOP-92 NSCLC = tested on: HOP-92 NSCLC
MALME-3M melanoma = tested on: MALME-3M melanoma
NCI-H522 lung = tested on: NCI-H522 lung
HCT-116 colon = tested on: HCT-116 colon
U251 glioblastoma = tested on: U251 glioblastoma
SK-OV-3 ovarian = tested on: SK-OV-3 ovarian
MDA-MB-468 breast = tested on: MDA-MB-468 breast
SF-295 CNS = tested on: SF-295 CNS
NCI-H23 lung = tested on: NCI-H23 lung
ACHN renal = tested on: ACHN renal
CAKI-1 renal = tested on: CAKI-1 renal
786-0 renal = tested on: 786-0 renal
TK-10 renal = tested on: TK-10 renal
HT29 colon = tested on: HT29 colon
SK-MEL-28 melanoma = tested on: SK-MEL-28 melanoma
COLO 205 colon = tested on: COLO 205 colon
HCC-2998 colon = tested on: HCC-2998 colon
OVCAR-5 ovarian = tested on: OVCAR-5 ovarian
NCI-H322M lung = tested on: NCI-H322M lung
PC-3 prostate = tested on: PC-3 prostate
MCF7 breast = tested on: MCF7 breast
KM12 colon = tested on: KM12 colon
UACC-62 melanoma = tested on: UACC-62 melanoma
SF-268 CNS = tested on: SF-268 CNS
EKVX NSCLC = tested on: EKVX NSCLC
MOLT-4 leukemia = tested on: MOLT-4 leukemia
OVCAR-8 ovarian = tested on: OVCAR-8 ovarian
HL-60(TB) leukemia = tested on: HL-60(TB) leukemia
BT-549 breast = tested on: BT-549 breast
DU-145 prostate = tested on: DU-145 prostate
NCI-H226 lung = tested on: NCI-H226 lung
OVCAR-4 ovarian = tested on: OVCAR-4 ovarian
SK-MEL-5 melanoma = tested on: SK-MEL-5 melanoma
RXF 393 renal = tested on: RXF 393 renal
MDA-MB-435 melanoma = tested on: MDA-MB-435 melanoma
RPMI-8226 leukemia = tested on: RPMI-8226 leukemia
SN12C renal = tested on: SN12C renal
NCI/ADR-RES ovarian = tested on: NCI/ADR-RES ovarian
T-47D breast = tested on: T-47D breast
HS 578T breast = tested on: HS 578T breast
SW-620 colon = tested on: SW-620 colon
MDA-MB-231 breast = tested on: MDA-MB-231 breast
LOX IMVI melanoma = tested on: LOX IMVI melanoma
M14 melanoma = tested on: M14 melanoma
NCI-H460 NSCLC = tested on: NCI-H460 NSCLC
UO-31 renal = tested on: UO-31 renal
CCRF-CEM leukemia = tested on: CCRF-CEM leukemia
HOP-62 NSCLC = tested on: HOP-62 NSCLC
SR leukemia = tested on: SR leukemia
A498 renal = tested on: A498 renal
A549 NSCLC = tested on: A549 NSCLC

Cc1cnc(Nc2ccc(OCCN3CCCC3)cc2)nc1Nc1cccc(S(=O)(=O)NC(C)(C)C)c1
GI50 (SF-539 CNS): 1510 nM
TGI (SF-539 CNS): 2860 nM
GI50 (OVCAR-3 ovarian): 1270 nM
TGI (OVCAR-3 ovarian): 4.51 µM
GI50 (HCT-15 colon): 1660 nM
TGI (HCT-15 colon): 4.31 µM
GI50 (UACC-257 melanoma): 1730 nM
TGI (UACC-257 melanoma): 3.12 µM
GI50 (SNB-19 CNS): 2970 nM
TGI (SNB-19 CNS): 8.89 µM
GI50 (SNB-75 CNS): 869 nM
TGI (SNB-75 CNS): 2160 nM
GI50 (IGROV1 ovarian): 1080 nM
TGI (IGROV1 ovarian): 2650 nM
GI50 (HOP-92 NSCLC): 1020 nM
TGI (HOP-92 NSCLC): 2220 nM
GI50 (MALME-3M melanoma): 1450 nM
TGI (MALME-3M melanoma): 3.04 µM
GI50 (NCI-H522 lung): 523 nM
TGI (NCI-H522 lung): 1680 nM
GI50 (HCT-116 colon): 635 nM
TGI (HCT-116 colon): 2070 nM
GI50 (U251 glioblastoma): 2570 nM
TGI (U251 glioblastoma): 12.4 µM
GI50 (SK-OV-3 ovarian): 604 nM
TGI (SK-OV-3 ovarian): 1840 nM
GI50 (MDA-MB-468 breast): 1200 nM
TGI (MDA-MB-468 breast): 2640 nM
GI50 (SF-295 CNS): 2740 nM
TGI (SF-295 CNS): 8.67 µM
GI50 (NCI-H23 lung): 1450 nM
TGI (NCI-H23 lung): 3.35 µM
GI50 (ACHN renal): 1300 nM
TGI (ACHN renal): 2850 nM
GI50 (CAKI-1 renal): 593 nM
TGI (CAKI-1 renal): 1710 nM
GI50 (786-0 renal): 1270 nM
TGI (786-0 renal): 2550 nM
GI50 (TK-10 renal): 1550 nM
TGI (TK-10 renal): 3.19 µM
GI50 (HT29 colon): 1420 nM
TGI (HT29 colon): 2790 nM
GI50 (SK-MEL-28 melanoma): 3.61 µM
TGI (SK-MEL-28 melanoma): 11.6 µM
GI50 (COLO 205 colon): 1820 nM
TGI (COLO 205 colon): 3.28 µM
GI50 (HCC-2998 colon): 1390 nM
TGI (HCC-2998 colon): 2860 nM
GI50 (OVCAR-5 ovarian): 1670 nM
TGI (OVCAR-5 ovarian): 5.63 µM
GI50 (NCI-H322M lung): 1240 nM
TGI (NCI-H322M lung): 7.23 µM
GI50 (PC-3 prostate): 1440 nM
TGI (PC-3 prostate): 8.68 µM
GI50 (MCF7 breast): 1160 nM
TGI (MCF7 breast): 2680 nM
GI50 (KM12 colon): 418 nM
TGI (KM12 colon): 5.55 µM
GI50 (UACC-62 melanoma): 1000 nM
TGI (UACC-62 melanoma): 2670 nM
GI50 (SF-268 CNS): 1900 nM
TGI (SF-268 CNS): 4.22 µM
GI50 (EKVX NSCLC): 1770 nM
TGI (EKVX NSCLC): 3.98 µM
GI50 (MOLT-4 leukemia): 428 nM
TGI (MOLT-4 leukemia): 1480 nM
GI50 (OVCAR-8 ovarian): 1540 nM
TGI (OVCAR-8 ovarian): 2920 nM
GI50 (HL-60(TB) leukemia): 464 nM
TGI (HL-60(TB) leukemia): 1340 nM
GI50 (BT-549 breast): 1620 nM
TGI (BT-549 breast): 3.01 µM
GI50 (DU-145 prostate): 1080 nM
TGI (DU-145 prostate): 2870 nM
GI50 (NCI-H226 lung): 740 nM
TGI (NCI-H226 lung): 1940 nM
GI50 (OVCAR-4 ovarian): 1600 nM
TGI (OVCAR-4 ovarian): 3.65 µM
GI50 (SK-MEL-5 melanoma): 1320 nM
TGI (SK-MEL-5 melanoma): 2630 nM
GI50 (RXF 393 renal): 707 nM
TGI (RXF 393 renal): 1660 nM
GI50 (MDA-MB-435 melanoma): 2610 nM
TGI (MDA-MB-435 melanoma): 11.6 µM
GI50 (RPMI-8226 leukemia): 624 nM
TGI (RPMI-8226 leukemia): 1780 nM
GI50 (SN12C renal): 1540 nM
TGI (SN12C renal): 4.49 µM
GI50 (NCI/ADR-RES ovarian): 6.43 µM
TGI (NCI/ADR-RES ovarian): 18.3 µM
GI50 (T-47D breast): 1780 nM
TGI (T-47D breast): 5.21 µM
GI50 (HS 578T breast): 837 nM
TGI (HS 578T breast): 2270 nM
GI50 (SW-620 colon): 1570 nM
TGI (SW-620 colon): 3.64 µM
GI50 (MDA-MB-231 breast): 1060 nM
TGI (MDA-MB-231 breast): 2350 nM
GI50 (LOX IMVI melanoma): 815 nM
TGI (LOX IMVI melanoma): 2050 nM
GI50 (M14 melanoma): 1020 nM
TGI (M14 melanoma): 2500 nM
GI50 (NCI-H460 NSCLC): 1880 nM
TGI (NCI-H460 NSCLC): 11.7 µM
GI50 (UO-31 renal): 1770 nM
TGI (UO-31 renal): 3.17 µM
GI50 (CCRF-CEM leukemia): 1400 nM
TGI (CCRF-CEM leukemia): 2750 nM
GI50 (HOP-62 NSCLC): 2000 nM
TGI (HOP-62 NSCLC): 4.87 µM
GI50 (SR leukemia): 372 nM
TGI (SR leukemia): 1360 nM
GI50 (A498 renal): 909 nM
TGI (A498 renal): 3.09 µM
GI50 (A549 NSCLC): 1370 nM
TGI (A549 NSCLC): 2730 nM
